{
  "source": "ChEMBL document CHEMBL1201862",
  "about": "“PubChem BioAssay data set” (2004)",
  "key": {"cells [1]": {"assay": "cells", "format": "functional, cell-based"}, "[2]": {"biological_target": "T1, Trace amine-associated receptor 1 (Homo sapiens, UniProt Q96RJ0)", "T1 sequence (Q96RJ0 whole entry)": "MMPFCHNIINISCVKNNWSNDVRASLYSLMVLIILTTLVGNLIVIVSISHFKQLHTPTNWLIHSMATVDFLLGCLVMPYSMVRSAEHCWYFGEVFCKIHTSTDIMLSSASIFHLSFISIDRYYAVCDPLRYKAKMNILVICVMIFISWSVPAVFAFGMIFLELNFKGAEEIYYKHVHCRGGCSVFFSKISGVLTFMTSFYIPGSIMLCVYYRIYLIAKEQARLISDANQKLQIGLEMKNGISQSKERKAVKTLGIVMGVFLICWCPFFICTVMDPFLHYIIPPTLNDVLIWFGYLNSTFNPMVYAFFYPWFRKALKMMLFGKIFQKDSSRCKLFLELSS", "assay": "Fluorescence-based cell-based high throughput dose response assay to identify agonists of the human trace amine associated receptor 1 (TAAR1).", "format": "functional"}, "[3]": {"biological_target": "T1, Trace amine-associated receptor 1", "assay": "Counterscreen for agonists of the human trace amine associated receptor 1 (hTAAR1): Fluorescence-based cell-based high throughput dose response assay to identify hTAAR1 agonist that also desensitize TAAR1 receptor response.", "format": "functional"}, "cells [4]": {"assay": "cells", "format": "functional, cell-based", "remark": "listed apart in the source"}, "[5]": {"biological_target": "T2, Long-chain-fatty-acid--AMP ligase FadD28 (Mycobacterium tuberculosis, UniProt P9WQ59)", "T2 sequence (P9WQ59 whole entry)": "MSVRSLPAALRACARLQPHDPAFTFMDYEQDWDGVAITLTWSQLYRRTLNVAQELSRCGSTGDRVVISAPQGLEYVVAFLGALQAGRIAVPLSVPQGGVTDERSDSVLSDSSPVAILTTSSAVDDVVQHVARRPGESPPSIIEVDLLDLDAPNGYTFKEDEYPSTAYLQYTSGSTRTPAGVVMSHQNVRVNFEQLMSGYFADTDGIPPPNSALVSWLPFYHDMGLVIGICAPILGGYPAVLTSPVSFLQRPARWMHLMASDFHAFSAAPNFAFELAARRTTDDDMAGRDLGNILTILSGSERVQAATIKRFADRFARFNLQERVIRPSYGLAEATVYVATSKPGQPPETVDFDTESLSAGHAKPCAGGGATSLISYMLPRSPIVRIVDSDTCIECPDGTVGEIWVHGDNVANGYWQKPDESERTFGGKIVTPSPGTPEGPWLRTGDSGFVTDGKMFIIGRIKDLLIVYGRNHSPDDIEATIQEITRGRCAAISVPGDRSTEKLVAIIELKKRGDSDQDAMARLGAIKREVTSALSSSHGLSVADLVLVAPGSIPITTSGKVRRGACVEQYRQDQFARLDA", "assay": "Fluorescence polarization aasay to screen for inhibitors that compete for the binding of FadD28 to a bisubstrate Measured in Biochemical System Using Plate Reader - 2147-01_Inhibitor_Dose_CherryPick_Activity.", "format": "functional, Mycobacterium tuberculosis H37Rv"}, "Protein skinhead-1": {"biological_target": "T3, Protein skinhead-1 (Caenorhabditis elegans, UniProt P34707)", "T3 sequence (P34707 whole entry)": "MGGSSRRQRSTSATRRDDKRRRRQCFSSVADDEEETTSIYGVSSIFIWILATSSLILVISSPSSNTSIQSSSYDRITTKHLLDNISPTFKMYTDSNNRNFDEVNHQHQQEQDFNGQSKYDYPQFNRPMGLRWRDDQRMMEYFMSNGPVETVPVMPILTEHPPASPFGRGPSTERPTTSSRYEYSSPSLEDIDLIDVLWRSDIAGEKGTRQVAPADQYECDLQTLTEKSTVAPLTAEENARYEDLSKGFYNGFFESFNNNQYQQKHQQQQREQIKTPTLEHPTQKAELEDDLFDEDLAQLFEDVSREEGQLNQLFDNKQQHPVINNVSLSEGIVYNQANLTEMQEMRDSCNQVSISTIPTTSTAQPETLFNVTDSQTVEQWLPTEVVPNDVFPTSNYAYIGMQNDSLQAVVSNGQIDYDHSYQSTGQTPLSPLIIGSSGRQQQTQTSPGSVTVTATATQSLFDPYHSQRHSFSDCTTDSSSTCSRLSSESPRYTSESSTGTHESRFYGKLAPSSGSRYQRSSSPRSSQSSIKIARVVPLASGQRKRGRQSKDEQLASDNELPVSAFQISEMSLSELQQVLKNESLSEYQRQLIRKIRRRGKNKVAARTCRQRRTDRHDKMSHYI", "format": "functional"}, "[6]": {"biological_target": "T4, Polyadenylate-binding protein 1 (Homo sapiens, UniProt P11940)", "T4 sequence (P11940 whole entry)": "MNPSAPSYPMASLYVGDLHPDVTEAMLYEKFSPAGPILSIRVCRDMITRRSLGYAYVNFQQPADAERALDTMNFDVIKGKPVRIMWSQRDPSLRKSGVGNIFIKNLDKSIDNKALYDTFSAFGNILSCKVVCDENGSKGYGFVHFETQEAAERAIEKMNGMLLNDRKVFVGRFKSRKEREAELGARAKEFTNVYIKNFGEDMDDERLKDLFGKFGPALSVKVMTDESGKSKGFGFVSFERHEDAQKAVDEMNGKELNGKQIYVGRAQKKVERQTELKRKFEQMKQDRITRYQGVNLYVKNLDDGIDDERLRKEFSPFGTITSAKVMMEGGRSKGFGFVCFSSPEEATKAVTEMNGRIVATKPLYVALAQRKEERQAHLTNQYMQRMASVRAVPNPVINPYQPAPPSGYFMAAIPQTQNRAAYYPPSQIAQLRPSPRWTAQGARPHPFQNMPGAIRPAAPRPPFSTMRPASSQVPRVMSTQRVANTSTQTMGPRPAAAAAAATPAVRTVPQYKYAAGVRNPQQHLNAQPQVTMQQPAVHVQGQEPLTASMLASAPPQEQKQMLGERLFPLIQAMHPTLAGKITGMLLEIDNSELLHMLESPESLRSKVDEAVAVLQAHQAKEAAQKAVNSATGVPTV", "assay": "PABP1 MLLE–PAM2 interaction inhibitors, dose response, miRNA deadenylation inhibitor project, biochemical, fluorescence polarization, Cy5-PAM2 peptide, secondary (AID 602260)", "format": "functional", "conditions": "read-out: IC50_Mean"}, "[7]": {"biological_target": "T4, Polyadenylate-binding protein 1", "assay": "PABP1 MLLE–PAM2 binding inhibitor potency, dose response, biochemical, fluorescence polarization, FITC-PAM2 peptide (AID 602259)", "format": "functional", "conditions": "read-out: IC50_Mean"}, "Genome polyprotein": {"biological_target": "Genome polyprotein (dengue virus type 2, UniProt P29990)", "sequence (P29990 2492-3391 limits assumed)": "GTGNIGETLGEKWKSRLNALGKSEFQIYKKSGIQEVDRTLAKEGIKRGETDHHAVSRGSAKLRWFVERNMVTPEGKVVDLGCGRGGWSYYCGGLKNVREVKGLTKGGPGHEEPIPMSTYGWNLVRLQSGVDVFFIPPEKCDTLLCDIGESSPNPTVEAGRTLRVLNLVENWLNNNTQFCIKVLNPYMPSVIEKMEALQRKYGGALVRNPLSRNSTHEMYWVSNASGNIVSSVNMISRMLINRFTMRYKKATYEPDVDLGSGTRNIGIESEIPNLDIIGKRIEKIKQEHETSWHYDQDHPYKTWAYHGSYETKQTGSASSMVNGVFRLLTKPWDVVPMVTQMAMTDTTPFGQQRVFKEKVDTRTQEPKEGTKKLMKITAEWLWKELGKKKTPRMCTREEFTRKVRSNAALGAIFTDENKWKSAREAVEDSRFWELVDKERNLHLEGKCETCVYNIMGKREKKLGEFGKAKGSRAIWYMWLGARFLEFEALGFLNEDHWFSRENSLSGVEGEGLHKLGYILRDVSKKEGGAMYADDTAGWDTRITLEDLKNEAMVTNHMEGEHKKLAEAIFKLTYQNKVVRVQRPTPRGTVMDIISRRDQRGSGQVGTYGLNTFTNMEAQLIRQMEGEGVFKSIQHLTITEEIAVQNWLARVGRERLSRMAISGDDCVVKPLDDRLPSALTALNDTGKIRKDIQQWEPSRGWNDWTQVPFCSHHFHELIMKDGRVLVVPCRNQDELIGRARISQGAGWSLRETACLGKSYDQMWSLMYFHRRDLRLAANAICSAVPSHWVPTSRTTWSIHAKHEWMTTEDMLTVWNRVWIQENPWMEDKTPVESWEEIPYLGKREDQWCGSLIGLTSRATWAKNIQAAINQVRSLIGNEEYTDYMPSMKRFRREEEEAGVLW", "assay": "Dengue-2 NS5 methyltransferase inhibitors, primary screen, biochemical, confirmation dose response (AID 588689)", "format": "functional"}, "[8]": {"biological_target": "T5, Calpain-2 catalytic subunit (Sus scrofa, UniProt P43367)", "T5 sequence (P43367 whole entry)": "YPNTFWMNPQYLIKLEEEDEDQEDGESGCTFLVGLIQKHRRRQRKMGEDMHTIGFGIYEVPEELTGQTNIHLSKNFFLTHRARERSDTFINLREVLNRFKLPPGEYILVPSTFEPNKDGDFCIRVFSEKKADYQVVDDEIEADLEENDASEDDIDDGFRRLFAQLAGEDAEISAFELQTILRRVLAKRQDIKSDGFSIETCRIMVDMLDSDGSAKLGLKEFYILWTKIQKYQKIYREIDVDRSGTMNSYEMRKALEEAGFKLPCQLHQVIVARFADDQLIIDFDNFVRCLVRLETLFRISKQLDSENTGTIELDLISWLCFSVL", "assay": "pig calpain II inhibitor potency, dose response, biochemical, fluorogenic peptide substrate (AID 1420)", "format": "functional"}, "[9]": {"biological_target": "T6, Rac GTPase-activating protein 1 (Homo sapiens, UniProt Q9H0H5)", "T6 sequence (Q9H0H5 whole entry)": "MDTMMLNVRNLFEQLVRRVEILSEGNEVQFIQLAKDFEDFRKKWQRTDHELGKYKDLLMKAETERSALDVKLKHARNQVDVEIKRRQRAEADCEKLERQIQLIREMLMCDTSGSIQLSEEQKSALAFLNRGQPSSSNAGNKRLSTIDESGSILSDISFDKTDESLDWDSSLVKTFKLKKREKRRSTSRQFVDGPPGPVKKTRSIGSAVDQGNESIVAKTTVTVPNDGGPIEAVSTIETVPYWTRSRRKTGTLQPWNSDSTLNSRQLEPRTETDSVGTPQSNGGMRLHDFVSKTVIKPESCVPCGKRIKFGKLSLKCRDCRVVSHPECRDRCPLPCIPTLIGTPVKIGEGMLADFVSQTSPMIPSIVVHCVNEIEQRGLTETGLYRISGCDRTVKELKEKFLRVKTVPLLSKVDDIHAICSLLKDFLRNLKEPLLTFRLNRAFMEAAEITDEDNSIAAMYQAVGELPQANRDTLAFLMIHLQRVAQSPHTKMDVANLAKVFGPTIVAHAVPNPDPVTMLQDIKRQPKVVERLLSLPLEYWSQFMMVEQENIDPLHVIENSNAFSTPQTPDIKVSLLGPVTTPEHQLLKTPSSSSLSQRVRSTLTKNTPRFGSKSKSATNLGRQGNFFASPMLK", "assay": "MgcRacGAP GTPase-activating activity inhibitors, confirmation, biochemical, ADP Hunter fluorescence, primary and confirmatory (AID 624330)", "format": "functional"}},
  "note": "Activity calls are given as the source filed them.",
  "data": [
    {"smiles": "Cc1cccc(NC2=NCC(=O)N2CCc2ccccc2)c1", "values": [
      {"measurement": "IC50", "setting": "cells [1]", "value": "> 29.9 µM (inactive)"},
      {"measurement": "EC50", "setting": "[2]", "value": "0.866 µM (active)"},
      {"measurement": "IC50", "setting": "[3]", "value": "7.06 µM (active)"},
      {"measurement": "EC50", "setting": "cells [4]", "value": "> 29.9 µM (inactive)"}
    ]},
    {"smiles": "COc1cccc(NC(=O)Cn2c(=O)oc3ccccc32)c1", "values": [
      {"measurement": "AC50", "setting": "[5]", "value": "8.71 µM (active)"}
    ]},
    {"smiles": "C=CCSc1nnc2c(n1)-c1cccc3cccc-2c13", "values": [
      {"measurement": "IC50", "setting": "Protein skinhead-1", "value": "18.2 µM (active)"}
    ]},
    {"smiles": "CCOCCCn1c(=N)c(S(=O)(=O)c2ccc(C)cc2)cc2c(=O)n3cc(C)ccc3nc21", "values": [
      {"measurement": "IC50", "setting": "[6]", "value": "> 66 µM (inactive)"},
      {"measurement": "IC50", "setting": "[7]", "value": "53.1 µM (inactive)"}
    ]},
    {"smiles": "COC(=O)Nc1ccc(SCC(=O)c2cccc([N+](=O)[O-])c2)cc1", "values": [
      {"measurement": "IC50", "setting": "[6]", "value": "> 66 µM (inactive)"},
      {"measurement": "IC50", "setting": "[7]", "value": "> 66 µM (inactive)"}
    ]},
    {"smiles": "COc1ccc2c(c1)Cc1cc(NC(=O)c3ccccc3-c3ccccc3C(=O)O)ccc1-2", "values": [
      {"measurement": "IC50", "setting": "Genome polyprotein", "value": "46.3 µM (active)"},
      {"measurement": "AC50", "setting": "[5]", "value": "89.9 µM (active)"}
    ]},
    {"smiles": "CCCCn1c(S)nnc1-c1csc(CCC)c1", "values": [
      {"measurement": "IC50", "setting": "[8]", "value": "24.1 µM (not active)"}
    ]},
    {"smiles": "Cc1cc(NC(=O)CSc2nc3sc4c(c3c(=O)n2C)CCCC4)no1", "values": [
      {"measurement": "IC50", "setting": "[8]", "value": "25.2 µM (not active)"}
    ]},
    {"smiles": "NC(Cc1ccc(F)cc1)c1csc(Nc2ccc(S(N)(=O)=O)cc2)n1", "note": "(stereo unspecified)", "values": [
      {"measurement": "IC50", "setting": "cells [1]", "value": "> 29.9 µM (inactive)"},
      {"measurement": "EC50", "setting": "[2]", "value": "5.18 µM (active)"},
      {"measurement": "IC50", "setting": "[3]", "value": "> 29.9 µM (inactive)"},
      {"measurement": "EC50", "setting": "cells [4]", "value": "> 29.9 µM (inactive)"}
    ]},
    {"smiles": "COc1ccc(C(=O)OCC(=O)c2ccccc2)cc1S(=O)(=O)N1CCOCC1", "values": [
      {"measurement": "AC50", "setting": "[5]", "value": "> 100 µM (inactive)"}
    ]},
    {"smiles": "c1ccc(-c2csc(-c3cccnc3)n2)cc1", "values": [
      {"measurement": "IC50", "setting": "Protein skinhead-1", "value": "40.4 µM (active)"}
    ]},
    {"smiles": "NC(=O)C1CCN(c2oc(-c3ccccc3F)nc2S(=O)(=O)c2ccc(Cl)cc2)CC1", "values": [
      {"measurement": "IC50", "setting": "Protein skinhead-1", "value": "> 100 µM (inactive)"}
    ]},
    {"smiles": "Cc1c(C(=O)NC(=S)Nc2ccc3c4c(cccc24)CC3)cccc1[N+](=O)[O-]", "values": [
      {"measurement": "IC50", "setting": "[6]", "value": "> 66 µM (inactive)"},
      {"measurement": "IC50", "setting": "[7]", "value": "> 66 µM (inactive)"}
    ]},
    {"smiles": "Cc1cc2c(C)ccc(C)c2nc1SCC(=O)c1cccs1", "values": [
      {"measurement": "IC50", "setting": "[8]", "value": "< 0.4 µM (not active)"}
    ]},
    {"smiles": "O=C(Nc1ccc2oc(-c3ccccc3)nc2c1)c1cccnc1", "values": [
      {"measurement": "IC50", "setting": "Protein skinhead-1", "value": "> 100 µM (inactive)"}
    ]},
    {"smiles": "COc1cc(/C=N/NC(=O)CNC(=O)c2ccc3c(c2)OCCO3)ccc1O", "values": [
      {"measurement": "IC50", "setting": "[9]", "value": "54.9 µM (active)"}
    ]}
  ]
}
